Experimental data published in the supplement of paper PMC10307832.

compound: O=C1NC(=O)[C@@H](c2cn3c4c(cccc24)CCC3)[C@@H]1c1c[nH]c2ccccc12 [Tivantinib] + CC(=O)Nc1cccc(-n2c(=O)n(C3CC3)c(=O)c3c(Nc4ccc(I)cc4F)n(C)c(=O)c(C)c32)c1 [Trametinib] (partner 0.02 µM); assay: relative viability (nuclei count vs DMSO), 5 days (fraction); higher = more cells survive; conditions: first compound 0.3162 µM
Procedure, shortened: (§1)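 Cells from lung cancer lines were seeded into 1536-well plates and, one day later, dosed by pin tool. Treatments were either a single drug or a fixed dose of an anchor drug with five library-drug doses (not always all listed) in √10 steps. After 5 days, nuclei were stained in a one-step fixation (final 0.05% Triton X-100, 1% formaldehyde, 1 ug/ml Hoechst) and counted on 4× images, and relative viability is the treated-to-vehicle nuclei ratio, as the median of duplicate plates.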

Cell Line	relative viability
NCI-H1355	0.367
NCI-H650	0.945
CAL-12T	0.183
NCI-H1666	0.814
H3255	0.234
NCI-H23	0.347
NCI-H1915	0.276
NCI-H1437	0.514
NCI-H1792	0.37
NCI-H2085	0.516
NCI-H1793	0.329
PC-3 [JPC-3]	0.513
EKVX	0.146
LCLC-103H	0.668
NCI-H1944	0.345
NCI-H1993	0.437
SK-LU-1	0.472
NCI-H358	0.128
NCI-H661	0.355
RERF-LC-KJ	0.688

compound: O=C1NC(=O)[C@@H](c2cn3c4c(cccc24)CCC3)[C@@H]1c1c[nH]c2ccccc12 [Tivantinib] + CCNC(=O)c1noc(-c2cc(C(C)C)c(O)cc2O)c1-c1ccc(CN2CCOCC2)cc1 [Luminespib] (partner 0.01 µM); assay: as above; conditions: first compound 0.01 µM
Procedure, shortened: as §1

Cell Line	relative viability
NCI-H2023	0.867
A-427	0.971
NCI-H460	0.0321
NCI-H727	0.334
NCI-H1755	0.478
NCI-H520	0.212
NCI-H2405	0.77
SW 1573	0.263
NCI-H1395	0.82
201T	1.07
NCI-H1975	0.197
HOP-62	0.889
NCI-H2347	0.726
NCI-H1355	0.787
NCI-H650	0.895
CAL-12T	0.506
NCI-H1666	0.963

Cell Line	relative viability
H3255	0.934
NCI-H23	0.278
NCI-H1915	0.883
NCI-H1437	1.13
NCI-H322M	0.977
NCI-H1792	0.479
NCI-H2085	0.429
NCI-H1793	0.186
PC-3 [JPC-3]	0.794
EKVX	0.997
LCLC-103H	1.02
NCI-H1944	0.712
NCI-H1993	1
SK-LU-1	0.183
NCI-H358	0.323
NCI-H661	0.936
RERF-LC-KJ	1.25

same assay, conditions: first compound 0.03162 µM

Cell Line	relative viability
NCI-H2023	0.82
A-427	0.873
NCI-H460	0.0359
NCI-H727	0.37
NCI-H1755	0.473
NCI-H520	0.218
NCI-H2405	0.908
SW 1573	0.525
NCI-H1395	0.662
201T	1.05
NCI-H1975	0.307
HOP-62	0.892
NCI-H2347	0.35
NCI-H1355	0.687
NCI-H650	0.798
CAL-12T	0.756
NCI-H1666	1.05

Cell Line	relative viability
H3255	0.811
NCI-H1915	0.775
NCI-H1437	1.15
NCI-H322M	0.874
NCI-H1792	0.323
NCI-H2085	0.379
NCI-H1793	0.22
PC-3 [JPC-3]	0.777
EKVX	0.927
LCLC-103H	0.938
NCI-H1944	0.609
NCI-H1993	0.822
SK-LU-1	0.218
NCI-H358	0.332
NCI-H661	0.93
RERF-LC-KJ	1.29

same assay, conditions: first compound 0.1 µM

Cell Line	relative viability
NCI-H2023	0.673
A-427	0.899
NCI-H460	0.0227
NCI-H727	0.514
NCI-H1755	0.4
NCI-H520	0.209
NCI-H2405	0.651
SW 1573	0.17
NCI-H1395	0.557
201T	1.01
NCI-H1975	0.17
HOP-62	0.917
NCI-H2347	0.285
NCI-H1355	0.726
NCI-H650	0.739
CAL-12T	0.43
NCI-H1666	0.944

Cell Line	relative viability
H3255	0.741
NCI-H23	0.215
NCI-H1915	0.722
NCI-H1437	1.1
NCI-H322M	0.737
NCI-H1792	0.338
NCI-H2085	0.403
NCI-H1793	0.156
PC-3 [JPC-3]	0.678
EKVX	0.938
LCLC-103H	0.976
NCI-H1944	0.697
NCI-H1993	0.421
SK-LU-1	0.197
NCI-H358	0.377
NCI-H661	0.954
RERF-LC-KJ	1.24

same assay, conditions: first compound 0.3162 µM

Cell Line	relative viability
NCI-H2023	0.528
A-427	0.76
NCI-H460	0.0374
NCI-H727	0.253
NCI-H1755	0.437
NCI-H520	0.198
NCI-H2405	0.586
SW 1573	0.271
NCI-H1395	0.403
201T	1.09
NCI-H1975	0.218
HOP-62	0.89
NCI-H2347	0.316
NCI-H1355	0.723
NCI-H650	0.432
CAL-12T	0.259

Cell Line	relative viability
NCI-H1666	0.939
NCI-H23	0.226
NCI-H1915	0.765
NCI-H1437	1.06
NCI-H1792	0.391
NCI-H2085	0.42
NCI-H1793	0.203
PC-3 [JPC-3]	0.575
LCLC-103H	0.856
NCI-H1944	0.608
NCI-H1993	0.56
SK-LU-1	0.199
NCI-H358	0.157
NCI-H661	0.799
RERF-LC-KJ	1.27

compound: O=C1NC(=O)[C@@H](c2cn3c4c(cccc24)CCC3)[C@@H]1c1c[nH]c2ccccc12 [Tivantinib] + C[C@]1(O)C[C@@H](c2nc(-c3ccc4ccc(-c5ccccc5)nc4c3)c3c(N)nccn32)C1 [Linsitinib] (partner 1 µM); assay: as above; conditions: first compound 0.01 µM
Procedure, shortened: as §1

Cell Line	relative viability
NCI-H2023	0.657
A-427	1.12
NCI-H460	0.833
NCI-H727	0.293
NCI-H1755	0.975
NCI-H520	1.13
NCI-H2405	1.16
SW 1573	0.762
NCI-H1395	1.1
201T	1.03
NCI-H1975	0.875
HOP-62	1.02
NCI-H2347	0.996
NCI-H1355	0.726
NCI-H650	0.997
CAL-12T	0.785
NCI-H1666	0.699

Cell Line	relative viability
H3255	0.95
NCI-H23	0.539
NCI-H1915	1.1
NCI-H1437	1.06
NCI-H322M	0.94
NCI-H1792	0.596
NCI-H2085	0.877
NCI-H1793	0.994
PC-3 [JPC-3]	0.929
EKVX	1
LCLC-103H	1.03
NCI-H1944	1.07
NCI-H1993	0.742
SK-LU-1	1.07
NCI-H358	0.725
NCI-H661	0.658
RERF-LC-KJ	0.895

same assay, conditions: first compound 0.03162 µM

Cell Line	relative viability
NCI-H2023	0.737
A-427	1.12
NCI-H460	0.637
NCI-H727	0.253
NCI-H1755	0.97
NCI-H520	1.11
NCI-H2405	1.02
SW 1573	0.853
NCI-H1395	1.22
201T	1.03
NCI-H1975	0.919
NCI-H2347	0.843
NCI-H1355	0.801
CAL-12T	0.812
NCI-H1666	0.807
H3255	0.864

Cell Line	relative viability
NCI-H23	0.579
NCI-H1915	1.14
NCI-H1437	1.04
NCI-H322M	0.864
NCI-H1792	0.431
NCI-H2085	1.07
NCI-H1793	0.843
PC-3 [JPC-3]	1.04
EKVX	0.898
LCLC-103H	0.944
NCI-H1944	1.06
NCI-H1993	0.863
SK-LU-1	1.17
NCI-H358	0.717
NCI-H661	0.442
RERF-LC-KJ	0.945

same assay, conditions: first compound 0.1 µM

Cell Line	relative viability
NCI-H2023	0.575
A-427	1.12
NCI-H460	0.746
NCI-H727	0.243
NCI-H1755	0.916
NCI-H520	0.812
NCI-H2405	0.941
SW 1573	0.77
NCI-H1395	0.926
201T	0.971
NCI-H1975	0.938
HOP-62	1.11
NCI-H2347	1.02
NCI-H1355	0.725
NCI-H650	0.774
CAL-12T	0.709
NCI-H1666	0.741

Cell Line	relative viability
H3255	0.943
NCI-H23	0.626
NCI-H1915	1.12
NCI-H1437	0.958
NCI-H322M	0.938
NCI-H1792	0.512
NCI-H2085	0.986
NCI-H1793	0.813
PC-3 [JPC-3]	1.01
EKVX	0.915
LCLC-103H	1.03
NCI-H1944	1.01
NCI-H1993	0.734
SK-LU-1	0.982
NCI-H358	0.617
NCI-H661	0.628
RERF-LC-KJ	0.826

same assay, conditions: first compound 0.3162 µM

Cell Line	relative viability
NCI-H2023	0.461
A-427	1.05
NCI-H460	0.683
NCI-H1755	1.01
NCI-H520	0.91
NCI-H2405	0.739
SW 1573	0.789
NCI-H1395	0.857
201T	0.954
NCI-H1975	0.598
HOP-62	1.15
NCI-H2347	1.01
NCI-H1355	0.779
NCI-H650	0.973
CAL-12T	0.397
NCI-H1666	0.735
NCI-H23	0.561
NCI-H1915	1.08
NCI-H1437	1.04
NCI-H322M	0.398
NCI-H1792	0.323
NCI-H2085	0.879
PC-3 [JPC-3]	0.708
EKVX	0.25
LCLC-103H	0.996
NCI-H1944	0.583
NCI-H1993	0.721
SK-LU-1	1.14
NCI-H358	0.328
RERF-LC-KJ	0.808
